The source of these data is patent US12214047B2, “FAP-activated proteasome inhibitors for treating solid tumors” (Trustees of Tufts College, priority 2011, dated 2025).

Data set [1] concerns FAP-transfected HEK tumor xenograft. The experiment in a line: Anticancer activity in FAP-transfected HEK tumor xenograft, 40-day study. The format is in vivo, mice. The text has this: Having determined the levels of FAP expression in the HEK xenograft model, the anticancer activity of ARI-3996 was next evaluated in a 40-day study. […] It also suffers conformation-dependent inactivation over time.

The nature of data set [2]: Tissue distribution of Velcade, ARI-3996 and ARI-2727D in mice. The format is in vivo. Here is the method: ARI-3996 is cleaved to ARI-2727D in and around tumors, thus facilitating the buildup of ARI-2727D in tumors.
Velcade®'s high toxicity would also result from the accumulation of the drug in the organs at the expense of accumulation in the tumor. […] Thus ARI-2727D is being selectively delivered to solid tumors via FAP activation of ARI-3996.
Finally, FAP activation was verified as the mode by which ARI-2727D tumor accumulation was taking place. In FIG. 24, ARI-2727D concentrations at 1 hour post-injection were compared with ARI-2727D concentrations 1 hour after injection of the prodrug form (ARI-3996).

In data set [3] the test system is U266 tumor xenografts. The experiment in a line: Anticancer effects in U266 tumor-bearing mice (ELISA and bioluminescence). The note with it: ARI-3996 50 mg/kg, Velcade 0.5 mg/kg, twice a week for 2 weeks. The class given is in vivo. Here is the method:
ARI-3996 consistently outperformed Velcade® in a mouse MM model. Mice bearing U266 tumor xenografts (2 female, 2 male) were treated with either the vehicle, ARI-3996, or Velcade® twice a week (day 1 and day 4) for 2 weeks. […] The inhibition of the tumor was evaluated using ELISA (μg/mL) and bioluminescence.
For orientation: ELISA stands for enzyme-linked immunosorbent assay.

The test system of data set [4] is solid tumors. In words: Cytotoxicity toward solid tumors. The format is cell-based.
Data set [5] deals with MM cell lines. The experiment in a line: Cytotoxicity toward Multiple Myeloma cell lines. The format is cell-based. Particulars: various MM cell lines.
The test system of data set [6] is normal cells. In words: Cytotoxicity toward normal cells. The format is cell-based.
Data set [7] has as its system HPAF-II carcinoma xenografts. The note with it: HPAF-II xenograft; ARI-3996 100 mg/kg i.p., bortezomib 1 mg/kg.
Protocol: ARI-3996 and bortezomib were administered twice weekly (day (D)1/D4 schedule), and ARI-3996 was also given from day 1 to day 5 for 5 consecutive days (QD×5 schedule).
One-way ANOVA with Dunnett's post test for test versus vehicle (P<0.0001).
ARI-3996 b.i.d. s.c. and gemcitabine once per day i.p. were administered twice weekly. Mean±SEM.
A short description of data set [8]: Maximum tolerated dose in mice. The format is in vivo.
For data set [9], the system named is FAP. The experiment in a line: Activation of ARI-3996 to release ARI-2727 in FAP knockout versus FAP+ mice. The class given is in vivo. The note with it: FAP+ mice treated with ARI-3996. Here is the method: Mouse models may over-report systemic toxicity of ARI-3996 compared with that possible in cancer patients. This was further verified by treatment of FAP knockout mice with ARI-3996. In knockout mice (FIG. 21), no activation of ARI-3996 to release ARI-2727 took place, whereas in FAP+ mice a concentration of the released warhead ARI-2727 of 150 ng/mL was reached.

Data set [10] has as its target DPPII (Homo sapiens, UniProt Q9UHL4). The experiment in a line: In vitro cleavage of fluorogenic substrate ARI-3144 (AMC fluorescence). The class given is biochemical. Particulars: fluorescence of released AMC. The source says:
(§1) The D-alanine at P2 of the fluorogenic substrate, N-(Quinoline-4-carbonyl)-D-Ala-Pro-AMC [AMC=7-amino-4-methylcoumarin] (ARI-3144), confers selectivity for FAP so that it is cleaved to release fluorescent AMC by recombinant FAP but not by other DPP-IV-like proteases (FIG. 3). […] FAP is reportedly not expressed constitutively in healthy tissue with the exception of endometrium, although FAP proteolytic activity is detectable in plasma. […] The ability to measure FAP proteolytic activity in tumors is required to evaluate the usefulness of ARI-3996 as a chemotherapeutic agent. Hitherto, FAP activity has not been quantified in human or mouse tumors. […] We will use the assay to select a mouse tumor model for investigation of ARI-3996's activity in which the increase in tumor-associated FAP activity relative to plasma is equivalent to that in human epithelial cancer.

Data set [11] has as its target T1, recombinant FAP (Homo sapiens, UniProt Q12884).
T1 sequence (Q12884 1-760): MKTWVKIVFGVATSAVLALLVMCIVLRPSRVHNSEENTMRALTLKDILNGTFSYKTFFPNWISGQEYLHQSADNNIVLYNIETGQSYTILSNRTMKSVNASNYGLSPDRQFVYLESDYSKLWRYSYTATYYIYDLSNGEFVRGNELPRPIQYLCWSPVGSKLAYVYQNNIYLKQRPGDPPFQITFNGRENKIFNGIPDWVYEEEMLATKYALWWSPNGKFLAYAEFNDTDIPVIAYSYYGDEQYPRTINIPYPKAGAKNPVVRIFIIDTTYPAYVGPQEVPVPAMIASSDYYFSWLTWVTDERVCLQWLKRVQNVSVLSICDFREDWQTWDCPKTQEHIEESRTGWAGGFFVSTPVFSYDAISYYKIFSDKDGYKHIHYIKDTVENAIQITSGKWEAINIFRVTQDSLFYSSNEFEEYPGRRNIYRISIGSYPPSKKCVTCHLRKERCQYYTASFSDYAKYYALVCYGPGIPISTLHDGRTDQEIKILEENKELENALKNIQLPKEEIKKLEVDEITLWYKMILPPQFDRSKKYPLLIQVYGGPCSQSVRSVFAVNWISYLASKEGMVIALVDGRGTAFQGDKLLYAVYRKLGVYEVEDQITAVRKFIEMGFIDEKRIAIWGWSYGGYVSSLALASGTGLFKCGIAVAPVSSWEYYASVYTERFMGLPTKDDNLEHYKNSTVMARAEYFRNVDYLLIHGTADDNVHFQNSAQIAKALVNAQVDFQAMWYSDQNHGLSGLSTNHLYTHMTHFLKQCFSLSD
The data set is described as above. The class given is biochemical. Particulars: fluorescence of released AMC.
Excerpt: (§2) Cleavage was monitored by measuring fluorescence of the AMC leaving group (excitation, 355 nm; emission, 460 nm).
as §1

The target in data set [12] is DPP9 (Homo sapiens, UniProt Q86TI2). The description is as above. The note with it: fluorescence of released AMC. The format is biochemical.
Sequence of DPP9 (Q86TI2 whole entry, species assumed): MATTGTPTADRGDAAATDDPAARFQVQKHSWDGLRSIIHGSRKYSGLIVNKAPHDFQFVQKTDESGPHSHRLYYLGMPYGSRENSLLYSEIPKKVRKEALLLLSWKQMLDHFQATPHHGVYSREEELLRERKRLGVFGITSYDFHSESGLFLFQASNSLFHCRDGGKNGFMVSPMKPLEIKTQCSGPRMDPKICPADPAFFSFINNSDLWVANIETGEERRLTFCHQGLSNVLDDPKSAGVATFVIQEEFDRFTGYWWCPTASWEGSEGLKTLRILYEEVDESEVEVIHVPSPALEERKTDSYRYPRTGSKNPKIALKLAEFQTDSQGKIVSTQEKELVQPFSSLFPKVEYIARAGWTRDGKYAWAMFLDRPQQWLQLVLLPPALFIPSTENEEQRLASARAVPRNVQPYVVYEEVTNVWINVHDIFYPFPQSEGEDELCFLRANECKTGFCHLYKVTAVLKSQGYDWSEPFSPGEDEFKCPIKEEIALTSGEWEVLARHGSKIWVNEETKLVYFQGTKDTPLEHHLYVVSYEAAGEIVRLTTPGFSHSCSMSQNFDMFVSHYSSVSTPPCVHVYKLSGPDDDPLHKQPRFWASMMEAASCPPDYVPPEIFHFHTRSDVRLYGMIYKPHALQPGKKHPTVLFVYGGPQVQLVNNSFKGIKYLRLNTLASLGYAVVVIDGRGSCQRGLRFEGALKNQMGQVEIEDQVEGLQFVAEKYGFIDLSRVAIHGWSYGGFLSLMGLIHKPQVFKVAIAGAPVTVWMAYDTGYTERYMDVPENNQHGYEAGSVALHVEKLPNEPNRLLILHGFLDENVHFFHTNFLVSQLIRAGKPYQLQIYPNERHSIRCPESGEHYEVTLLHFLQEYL
Excerpt: as §2, §1

Data set [13] has as its target DPPIV (Homo sapiens, UniProt P27487). The description is as above. The format is biochemical. The note with it: fluorescence of released AMC.
Excerpt: as §2, §1

Data set [14] addresses DPP8 (Homo sapiens, UniProt Q6V1X1). The data set is described as above. The format is biochemical. The note with it: fluorescence of released AMC.
Excerpt: as §2, §1

The target in data set [15] is T2, PREP (Homo sapiens, UniProt P48147).
T2 sequence (P48147 1-710): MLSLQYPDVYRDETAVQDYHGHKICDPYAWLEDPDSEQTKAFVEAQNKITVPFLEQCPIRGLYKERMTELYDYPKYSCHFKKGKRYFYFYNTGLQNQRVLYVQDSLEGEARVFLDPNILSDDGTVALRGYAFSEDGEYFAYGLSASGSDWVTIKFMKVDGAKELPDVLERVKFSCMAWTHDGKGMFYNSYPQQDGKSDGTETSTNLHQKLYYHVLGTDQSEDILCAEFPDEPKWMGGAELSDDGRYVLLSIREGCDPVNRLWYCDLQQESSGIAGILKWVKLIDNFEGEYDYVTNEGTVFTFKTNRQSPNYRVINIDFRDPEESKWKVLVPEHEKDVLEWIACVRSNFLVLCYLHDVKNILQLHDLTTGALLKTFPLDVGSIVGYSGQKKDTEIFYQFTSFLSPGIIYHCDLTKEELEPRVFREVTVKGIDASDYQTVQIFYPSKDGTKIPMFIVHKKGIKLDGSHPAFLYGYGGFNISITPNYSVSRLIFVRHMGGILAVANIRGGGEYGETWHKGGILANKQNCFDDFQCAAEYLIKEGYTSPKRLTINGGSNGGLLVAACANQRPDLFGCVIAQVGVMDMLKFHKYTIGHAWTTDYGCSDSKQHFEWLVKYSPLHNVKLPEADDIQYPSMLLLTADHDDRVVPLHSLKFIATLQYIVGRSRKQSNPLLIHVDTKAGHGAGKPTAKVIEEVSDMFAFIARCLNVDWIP
Described as above. The class given is biochemical. Particulars: fluorescence of released AMC.
Excerpt: as §2, §1

For data set [16] the following is noted: mice bearing PC3 prostate tumors; cited from earlier work.

“Also recorded” adds a separate entry of the source.

Sequence of DPP8 (Q6V1X1 whole entry, species assumed): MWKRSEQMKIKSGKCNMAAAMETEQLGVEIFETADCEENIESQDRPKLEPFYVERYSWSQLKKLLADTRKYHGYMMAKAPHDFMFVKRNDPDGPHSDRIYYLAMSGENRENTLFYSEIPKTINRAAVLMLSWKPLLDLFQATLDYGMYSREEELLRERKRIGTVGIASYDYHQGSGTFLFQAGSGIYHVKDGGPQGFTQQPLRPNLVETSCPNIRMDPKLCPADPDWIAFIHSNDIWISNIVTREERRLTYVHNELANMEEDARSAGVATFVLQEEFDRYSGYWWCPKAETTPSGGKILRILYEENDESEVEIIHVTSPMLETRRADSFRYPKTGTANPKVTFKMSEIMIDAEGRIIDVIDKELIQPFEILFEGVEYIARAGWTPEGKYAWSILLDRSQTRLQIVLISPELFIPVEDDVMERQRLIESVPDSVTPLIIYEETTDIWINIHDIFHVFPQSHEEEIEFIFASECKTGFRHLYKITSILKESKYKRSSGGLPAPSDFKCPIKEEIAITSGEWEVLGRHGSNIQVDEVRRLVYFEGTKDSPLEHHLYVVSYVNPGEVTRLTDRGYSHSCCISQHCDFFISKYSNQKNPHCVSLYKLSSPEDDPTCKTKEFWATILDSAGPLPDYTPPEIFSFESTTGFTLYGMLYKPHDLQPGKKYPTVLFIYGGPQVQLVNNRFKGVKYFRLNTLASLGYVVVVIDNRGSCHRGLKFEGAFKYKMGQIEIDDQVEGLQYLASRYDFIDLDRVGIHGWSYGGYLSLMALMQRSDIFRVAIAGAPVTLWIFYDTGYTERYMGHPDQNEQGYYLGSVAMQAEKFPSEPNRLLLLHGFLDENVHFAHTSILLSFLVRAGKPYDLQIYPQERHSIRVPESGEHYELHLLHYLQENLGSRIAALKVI
Sequence of DPPIV (P27487 whole entry, species assumed): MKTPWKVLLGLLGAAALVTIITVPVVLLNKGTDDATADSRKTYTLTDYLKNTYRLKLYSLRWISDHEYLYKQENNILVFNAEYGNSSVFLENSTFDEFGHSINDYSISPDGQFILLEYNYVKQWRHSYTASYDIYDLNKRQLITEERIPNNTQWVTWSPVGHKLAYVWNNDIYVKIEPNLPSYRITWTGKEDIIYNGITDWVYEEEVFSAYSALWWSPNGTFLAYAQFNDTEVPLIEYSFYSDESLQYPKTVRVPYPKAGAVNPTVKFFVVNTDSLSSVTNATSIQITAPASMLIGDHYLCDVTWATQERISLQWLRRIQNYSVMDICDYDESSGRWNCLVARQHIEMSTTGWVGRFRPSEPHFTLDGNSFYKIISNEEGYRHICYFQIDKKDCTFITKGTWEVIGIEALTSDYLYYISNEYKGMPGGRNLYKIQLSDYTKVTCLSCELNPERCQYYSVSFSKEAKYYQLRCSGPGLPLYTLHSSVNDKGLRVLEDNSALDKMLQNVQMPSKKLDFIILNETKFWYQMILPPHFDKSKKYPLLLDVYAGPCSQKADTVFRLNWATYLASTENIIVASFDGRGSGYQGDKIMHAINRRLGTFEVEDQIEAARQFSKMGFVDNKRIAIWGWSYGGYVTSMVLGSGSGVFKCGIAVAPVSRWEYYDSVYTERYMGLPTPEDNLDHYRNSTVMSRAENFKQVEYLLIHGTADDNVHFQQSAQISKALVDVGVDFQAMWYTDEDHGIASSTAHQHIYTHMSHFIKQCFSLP

As to `CC(C)C[C@H](NC(=O)[C@H](Cc1ccccc1)NC(=O)c1cnccn1)B(O)O` [bortezomib, reference compound], the Tumor growth inhibition result in data set [1] was “hardly slowed the growth of the tumors”. Moreover, in [2] (mouse, in vivo), the “Tissue distribution of the administered drug” value is “much higher concentrations in the heart, lung, kidney, liver, spleen, and lung than in the tumor”. In data set [3], this compound had a Deaths / survival of 1. For the same compound, the Cytotoxicity entry in data set [4] is reported as “much lower”; in data set [5] it was “extremely high potency”; in data set [6], “slightly lower toxicity”. In data set [7], the “Antitumor effect at MTD” value is “refractory; also recorded: lacks significant antitumor activity”. Moreover, the “MTD (maximum tolerated dose)” value in [8] stood at 1 mg/kg.
For `CC(C)CC(NC(=O)C(N)Cc1cccc2ccccc12)B(O)O` (centres unmarked) [ARI-2727D, Ala(1-Nal)-boroLeu], the Tumor growth inhibition result in data set [1] was “potent tumor inhibition”. In data set [2] (1 hour after injection of ARI-3996), the “Tissue distribution of ARI-2727D after injection of prodrug” value is listed as “highest concentration of ARI-2727D was found in the tumor”. In addition, the “Tissue distribution of ARI-2727D after direct injection” value in [2] (1 hour post-injection of ARI-2727D) was “highest concentration of the drug accumulating in the kidneys and lung”. Moreover, in data set [2] (mice given ARI-3996), the “Tissue distribution of ARI-2727D formed from ARI-3996” value is reported as “much higher relative concentrations in the tumor”. The Cytotoxicity entry is “much lower” in data set [4], “extremely high potency” in [5] and “slightly lower toxicity” in [6]. In [9], the “Concentration of the released warhead ARI-2727” value is 150 ng/mL.
As to `Cc1cc(=O)oc2cc(NC(=O)[C@@H]3CCCN3C(=O)[C@@H](C)NC(=O)c3ccnc4ccccc34)ccc12` [ARI-3144, N-(Quinoline-4-carbonyl)-D-Ala-Pro-AMC], in [10], the “Cleavage by DPPII” value is reported as “no cleavage”. The “Cleavage by FAP” value in data set [11] is “excellent substrate for FAP”. Also, in [12], the “Cleavage by DPP9” value was “no cleavage”. Also, the “Cleavage by DPPIV” value in [13] is given as “no cleavage”. Also, the “Cleavage by DPP8” value in data set [14] was “no cleavage”. Besides, the “Cleavage by PREP” value in data set [15] is on record as “no cleavage”.
On to `CC(C)C[C@H](NC(=O)[C@H](Cc1ccccc1)NC(=O)c1cnccn1)B(O)O` [^14C-bortezomib], for which the “Healthy organ exposure relative to tumor exposure” value in data set [16] was at most 9 fold.
